Source: patent US9637483B2, “Heterocyclic compound” (TAKEDA PHARMACEUTICAL COMPANY LIMITED, priority 2013, dated 2017)

Legend:
Type in all cases: biochemical
JAK1 = biological target: T1, JAK1 (Homo sapiens, UniProt P23458); experiment: JAK1 enzyme inhibition test (LANCE method); conditions: 1 μM test compound; read-out: JAK1 enzyme inhibitory activity (%, 1 μM)
T1 construct: purchased Invitrogen
Protocol: (§1) JAK1 enzyme inhibitory activity of test compounds was measured by the LANCE method (PerkinElmer). First, a test compound diluted with assay buffer (50 mM HEPES (pH 7.5), 10 mM MgCl2, 1 mM EGTA, 2 mM DTT, 0.01% Tween20, 0.01% BSA) was added to a 384-well plate by 2 μL each. Then, a JAK1 (Invitrogen) solution and a fluorescence-labeled peptide substrate (ULight-JAK1, PerkinElmer) solution diluted with assay buffer to 187.5 ng/mL and 300 nM, respectively, were added by 2 μL each. Then, an enzyme reaction was started by adding 2 μL each of ATP solution prepared with assay buffer to 150 μM. After the reaction at room temperature for 1 hr, Detection Buffer (PerkinElmer) prepared to contain 20 mM EDTA, 4 nM europium-labeled anti-phosphotyrosine antibody (PerkinElmer) was added by 6 μL each. After standing at room temperature for 1 hr, fluorescence intensity (excitation wavelength 340 nm, fluorescence wavelength 665 nm, delay time 100 microseconds) was measured by a plate reader, Envision (PerkinElmer). The inhibitory activity of each compound was calculated as a relative activity value to the fluorescence intensity of a well free of enzyme as 100% inhibition.

JAK3 = biological target: T2, JAK3 (Homo sapiens, UniProt P52333); experiment: JAK3 enzyme inhibition test (LANCE method); conditions: 1 μM test compound; read-out: JAK3 enzyme inhibitory activity (%, 1 μM)
T2 construct: purchased Invitrogen
T2 sequence (P52333 1-1124): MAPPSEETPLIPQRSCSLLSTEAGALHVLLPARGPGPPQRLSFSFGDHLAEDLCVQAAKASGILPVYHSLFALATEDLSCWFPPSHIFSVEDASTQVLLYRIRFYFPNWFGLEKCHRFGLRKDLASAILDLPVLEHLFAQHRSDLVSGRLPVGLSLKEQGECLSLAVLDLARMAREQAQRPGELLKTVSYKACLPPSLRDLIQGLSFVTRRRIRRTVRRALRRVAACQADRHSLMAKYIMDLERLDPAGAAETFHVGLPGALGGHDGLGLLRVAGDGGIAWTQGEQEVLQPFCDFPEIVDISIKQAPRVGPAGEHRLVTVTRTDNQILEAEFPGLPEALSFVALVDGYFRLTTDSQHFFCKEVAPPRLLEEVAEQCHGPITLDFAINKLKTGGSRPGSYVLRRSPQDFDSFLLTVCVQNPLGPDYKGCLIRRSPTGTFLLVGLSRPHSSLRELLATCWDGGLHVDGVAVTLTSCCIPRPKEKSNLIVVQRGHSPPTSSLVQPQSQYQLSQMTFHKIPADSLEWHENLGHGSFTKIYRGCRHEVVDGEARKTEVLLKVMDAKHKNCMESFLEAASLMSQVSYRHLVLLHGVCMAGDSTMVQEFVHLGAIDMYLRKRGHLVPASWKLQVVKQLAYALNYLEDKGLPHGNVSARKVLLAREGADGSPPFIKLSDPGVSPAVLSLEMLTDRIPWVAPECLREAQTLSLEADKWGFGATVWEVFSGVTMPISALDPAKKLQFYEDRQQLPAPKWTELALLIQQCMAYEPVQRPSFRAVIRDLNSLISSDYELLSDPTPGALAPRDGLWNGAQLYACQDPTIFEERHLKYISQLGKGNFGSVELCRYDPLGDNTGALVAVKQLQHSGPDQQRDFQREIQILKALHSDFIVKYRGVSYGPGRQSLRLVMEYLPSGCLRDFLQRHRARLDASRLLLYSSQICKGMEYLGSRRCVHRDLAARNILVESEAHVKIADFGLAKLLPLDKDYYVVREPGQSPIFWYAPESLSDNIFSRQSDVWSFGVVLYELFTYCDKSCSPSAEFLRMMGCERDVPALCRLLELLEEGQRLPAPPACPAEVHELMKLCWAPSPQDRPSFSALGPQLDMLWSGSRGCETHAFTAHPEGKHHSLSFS
Protocol: as §1, with “JAK3 enzyme” for “JAK1 enzyme”, “a JAK3” for “a JAK1”, “to 12” for “to 187.5”, “to 15” for “to 150”

TYK2 = biological target: T3, TYK2 (Homo sapiens, UniProt P29597); experiment: TYK2 enzyme inhibition test (LANCE method); conditions: 1 μM test compound; read-out: TYK2 enzyme inhibitory activity (%, 1 μM)
T3 construct: purchased Invitrogen
Protocol: as §1, with “TYK2 enzyme” for “JAK1 enzyme”, “a TYK2” for “a JAK1”, “to 375” for “to 187.5”, “to 30” for “to 150”

JAK2 = biological target: T4, JAK2 (Homo sapiens, UniProt O60674); experiment: JAK2 enzyme inhibition test (LANCE method); conditions: 1 μM test compound; read-out: JAK2 enzyme inhibitory activity (%, 1 μM)
T4 construct: purchased Invitrogen
Protocol: as §1, with “JAK2 enzyme” for “JAK1 enzyme”, “a JAK2” for “a JAK1”, “to 6” for “to 187.5”, “to 45” for “to 150”

T4 sequence (O60674 whole entry): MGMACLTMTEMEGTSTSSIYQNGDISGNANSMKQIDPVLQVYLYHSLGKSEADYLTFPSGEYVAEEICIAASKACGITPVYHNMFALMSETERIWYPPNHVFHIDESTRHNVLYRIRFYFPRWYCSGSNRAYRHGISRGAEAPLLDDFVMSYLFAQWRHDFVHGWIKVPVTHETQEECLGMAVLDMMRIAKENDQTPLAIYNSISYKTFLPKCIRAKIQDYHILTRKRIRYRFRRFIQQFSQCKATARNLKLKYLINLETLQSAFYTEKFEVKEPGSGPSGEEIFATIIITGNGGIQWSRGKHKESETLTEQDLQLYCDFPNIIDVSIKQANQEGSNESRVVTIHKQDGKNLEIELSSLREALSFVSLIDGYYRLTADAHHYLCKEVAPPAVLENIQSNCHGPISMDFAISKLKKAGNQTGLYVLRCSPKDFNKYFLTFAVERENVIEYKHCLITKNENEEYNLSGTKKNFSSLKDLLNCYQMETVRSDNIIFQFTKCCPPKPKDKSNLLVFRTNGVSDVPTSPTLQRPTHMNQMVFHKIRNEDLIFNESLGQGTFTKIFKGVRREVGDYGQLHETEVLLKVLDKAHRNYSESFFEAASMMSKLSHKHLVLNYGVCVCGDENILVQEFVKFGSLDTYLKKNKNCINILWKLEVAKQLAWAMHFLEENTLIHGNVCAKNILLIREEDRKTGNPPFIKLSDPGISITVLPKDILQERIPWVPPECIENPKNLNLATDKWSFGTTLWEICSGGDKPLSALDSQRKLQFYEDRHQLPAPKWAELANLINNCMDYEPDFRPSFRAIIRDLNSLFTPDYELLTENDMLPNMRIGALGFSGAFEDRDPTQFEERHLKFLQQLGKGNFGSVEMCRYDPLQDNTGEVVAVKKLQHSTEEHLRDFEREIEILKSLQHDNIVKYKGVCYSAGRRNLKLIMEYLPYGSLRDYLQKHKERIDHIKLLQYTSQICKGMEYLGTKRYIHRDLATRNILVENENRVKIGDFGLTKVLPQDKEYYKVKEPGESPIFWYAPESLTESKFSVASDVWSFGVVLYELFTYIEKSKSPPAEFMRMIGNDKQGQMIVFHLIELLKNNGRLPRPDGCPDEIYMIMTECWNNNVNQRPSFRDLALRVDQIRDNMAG
T3 sequence (P29597 whole entry): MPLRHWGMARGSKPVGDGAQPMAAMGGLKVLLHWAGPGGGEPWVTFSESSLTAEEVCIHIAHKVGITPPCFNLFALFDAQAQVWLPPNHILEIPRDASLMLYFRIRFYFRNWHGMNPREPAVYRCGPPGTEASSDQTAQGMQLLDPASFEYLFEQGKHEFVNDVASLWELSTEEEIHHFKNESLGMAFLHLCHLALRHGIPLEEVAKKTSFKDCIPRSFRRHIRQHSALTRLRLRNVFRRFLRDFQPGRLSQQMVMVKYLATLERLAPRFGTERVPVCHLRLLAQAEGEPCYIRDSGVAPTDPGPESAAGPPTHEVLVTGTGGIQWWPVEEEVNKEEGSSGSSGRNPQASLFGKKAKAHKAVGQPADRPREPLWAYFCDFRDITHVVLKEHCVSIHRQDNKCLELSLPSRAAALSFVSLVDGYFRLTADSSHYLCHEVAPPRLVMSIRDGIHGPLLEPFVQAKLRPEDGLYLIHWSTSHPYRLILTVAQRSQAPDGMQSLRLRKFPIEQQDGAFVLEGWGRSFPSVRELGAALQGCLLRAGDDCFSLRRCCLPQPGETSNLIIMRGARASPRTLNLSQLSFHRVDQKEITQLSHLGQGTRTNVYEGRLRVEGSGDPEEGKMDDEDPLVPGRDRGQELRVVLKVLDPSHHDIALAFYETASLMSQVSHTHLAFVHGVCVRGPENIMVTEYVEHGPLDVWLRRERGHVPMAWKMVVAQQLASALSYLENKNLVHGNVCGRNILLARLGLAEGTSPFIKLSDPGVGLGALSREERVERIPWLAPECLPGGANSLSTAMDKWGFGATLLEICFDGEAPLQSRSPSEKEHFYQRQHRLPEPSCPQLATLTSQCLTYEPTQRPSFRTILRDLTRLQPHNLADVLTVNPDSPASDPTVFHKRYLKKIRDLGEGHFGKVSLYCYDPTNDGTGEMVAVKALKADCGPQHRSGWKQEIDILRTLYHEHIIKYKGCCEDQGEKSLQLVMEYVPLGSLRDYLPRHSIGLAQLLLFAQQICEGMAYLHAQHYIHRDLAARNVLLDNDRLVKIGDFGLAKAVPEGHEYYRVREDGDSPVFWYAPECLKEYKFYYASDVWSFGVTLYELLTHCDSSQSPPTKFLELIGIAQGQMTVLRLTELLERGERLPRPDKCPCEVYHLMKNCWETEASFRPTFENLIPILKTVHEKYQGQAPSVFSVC
T1 sequence (P23458 whole entry): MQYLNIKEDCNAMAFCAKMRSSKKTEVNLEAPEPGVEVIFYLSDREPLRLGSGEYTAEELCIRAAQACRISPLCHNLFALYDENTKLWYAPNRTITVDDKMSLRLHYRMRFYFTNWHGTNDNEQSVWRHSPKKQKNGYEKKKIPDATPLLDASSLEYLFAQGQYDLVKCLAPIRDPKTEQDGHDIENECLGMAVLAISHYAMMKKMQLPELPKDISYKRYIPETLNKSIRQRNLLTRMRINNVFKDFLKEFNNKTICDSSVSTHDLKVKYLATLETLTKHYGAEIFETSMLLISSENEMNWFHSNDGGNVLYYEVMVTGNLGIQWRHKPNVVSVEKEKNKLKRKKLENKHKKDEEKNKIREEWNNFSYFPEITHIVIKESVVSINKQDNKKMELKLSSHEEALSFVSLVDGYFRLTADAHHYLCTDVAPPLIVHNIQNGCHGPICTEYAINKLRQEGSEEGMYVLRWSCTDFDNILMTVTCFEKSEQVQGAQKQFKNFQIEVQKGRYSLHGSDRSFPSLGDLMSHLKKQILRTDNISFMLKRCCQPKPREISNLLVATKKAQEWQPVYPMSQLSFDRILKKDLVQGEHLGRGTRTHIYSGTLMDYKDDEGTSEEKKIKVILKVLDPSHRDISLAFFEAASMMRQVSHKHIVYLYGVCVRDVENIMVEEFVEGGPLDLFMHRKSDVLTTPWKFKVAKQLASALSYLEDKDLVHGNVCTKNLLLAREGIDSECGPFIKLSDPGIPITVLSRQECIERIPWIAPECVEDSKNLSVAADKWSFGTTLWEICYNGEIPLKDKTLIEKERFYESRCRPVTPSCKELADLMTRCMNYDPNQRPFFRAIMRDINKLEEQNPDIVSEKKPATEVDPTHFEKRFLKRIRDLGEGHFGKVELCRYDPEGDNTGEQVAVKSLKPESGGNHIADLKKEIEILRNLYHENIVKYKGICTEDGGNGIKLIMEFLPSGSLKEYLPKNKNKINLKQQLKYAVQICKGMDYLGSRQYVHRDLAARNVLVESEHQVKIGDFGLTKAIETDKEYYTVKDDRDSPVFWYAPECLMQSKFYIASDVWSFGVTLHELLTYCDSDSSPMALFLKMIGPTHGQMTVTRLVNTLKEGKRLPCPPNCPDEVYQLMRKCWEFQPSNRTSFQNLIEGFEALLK

inhibition at 1 µM (JAK1) [%]	inhibition at 1 µM (JAK3) [%]	inhibition at 1 µM (TYK2) [%]	inhibition at 1 µM (JAK2) [%]	SMILES
100	100	99	100	C[C@@H](C1CC1)n1cc(-c2cc(C(C)(C)O)n(C)n2)c2[nH]nc(N)c2c1=O [Example 7, 3-amino-5-((1S)-1-cyclopropylethyl)-7-(5-(2-hydroxypropan-2-yl)-1-methyl-1H-pyrazol-3-yl)-1,5-dihydro-4H-pyrazolo[4,3-c]pyridin-4-one]
99	100	99	99	C[C@@H](C1CC1)n1cc(-c2cc(N3CCC(C)(O)CC3)n(C)n2)c2[nH]nc(N)c2c1=O [Example 8, 3-amino-5-((1S)-1-cyclopropylethyl)-7-(5-(4-hydroxy-4-methylpiperidin-1-yl)-1-methyl-1H-pyrazol-3-yl)-1,5-dihydro-4H-pyrazolo[4,3-c]pyridin-4-one]
98	100	99	99	CC(C1CC1)n1cc(-c2cc(CN3CCS(=O)(=O)CC3)n(C)n2)c2[nH]nc(N)c2c1=O (stereo not shown) [Example 9, 3-amino-5-(1-cyclopropylethyl)-7-(5-((1,1-dioxidothiomorpholin-4-yl)methyl)-1-methyl-1H-pyrazol-3-yl)-1,5-dihydro-4H-pyrazolo[4,3-c]pyridin-4-one]
96	99	99	98	CC(C)[C@H](C)n1cc(-c2cc(N3CCN(C)CC3)n(C)n2)c2[nH]nc(N)c2c1=O [Example 10, 3-amino-5-((2S)-3-methylbutan-2-yl)-7-(1-methyl-5-(4-methylpiperazin-1-yl)-1H-pyrazol-3-yl)-1,5-dihydro-4H-pyrazolo[4,3-c]pyridin-4-one]
98	99	100	99	CC(=O)N1CCN(c2cc(-c3cn([C@@H](C)C(C)C)c(=O)c4c(N)n[nH]c34)nn2C)CC1 [Example 11, 7-(5-(4-acetylpiperazin-1-yl)-1-methyl-1H-pyrazol-3-yl)-3-amino-5-((2S)-3-methylbutan-2-yl)-1,5-dihydro-4H-pyrazolo[4,3-c]pyridin-4-one]
93	99	100	99	CC(C)[C@H](C)n1cc(-c2cc(N3CCS(=O)(=O)CC3)n(C)n2)c2[nH]nc(N)c2c1=O [Example 12, 3-amino-7-(5-(1,1-dioxidothiomorpholin-4-yl)-1-methyl-1H-pyrazol-3-yl)-5-((2S)-3-methylbutan-2-yl)-1,5-dihydro-4H-pyrazolo[4,3-c]pyridin-4-one]
97	99	100	99	CC(C)[C@H](C)n1cc(-c2cc(N3CCCOCC3)n(C)n2)c2[nH]nc(N)c2c1=O [Example 13, 3-amino-5-((2S)-3-methylbutan-2-yl)-7-(1-methyl-5-(1,4-oxazepan-4-yl)-1H-pyrazol-3-yl)-1,5-dihydro-4H-pyrazolo[4,3-c]pyridin-4-one]
97	99	99	99	COC1CCN(c2cc(-c3cn([C@@H](C)C(C)C)c(=O)c4c(N)n[nH]c34)nn2C)CC1 [Example 14, 3-amino-7-(5-(4-methoxypiperidin-1-yl)-1-methyl-1H-pyrazol-3-yl)-5-((2S)-3-methylbutan-2-yl)-1,5-dihydro-4H-pyrazolo[4,3-c]pyridin-4-one]
97	100	100	99	CC(C)[C@H](C)n1cc(-c2cc(N3CCC(C(C)(C)O)CC3)n(C)n2)c2[nH]nc(N)c2c1=O [Example 15, 3-amino-7-(5-(4-(2-hydroxypropan-2-yl)piperidin-1-yl)-1-methyl-1H-pyrazol-3-yl)-5-((2S)-3-methylbutan-2-yl)-1,5-dihydro-4H-pyrazolo[4,3-c]pyridin-4-one]
97	100	100	99	CC(C)[C@H](C)n1cc(-c2cc(N3CCC(F)(F)CC3)n(C)n2)c2[nH]nc(N)c2c1=O [Example 16, 3-amino-7-(5-(4,4-difluoropiperidin-1-yl)-1-methyl-1H-pyrazol-3-yl)-5-((2S)-3-methylbutan-2-yl)-1,5-dihydro-4H-pyrazolo[4,3-c]pyridin-4-one]
